Results on one molecule are retold here after US10420831B2, “Inactivation of viruses by delipidation” (priority 2016, dated 2019).

Experiment [1] has as its system human influenza virus H1N1 A/WSN/33 strain. Type of experiment: cell-based.
The test system is the same in experiment [2]. As to the kind of experiment: Hemagglutination (HA) activity of treated IFV with chicken red blood cells. As for the experimental part:
Hemagglutination (HA) activity is determined as follows. Freshly isolated chicken blood is washed three times with PBS, and the red blood cells (RBC) are resuspended in PBS at a concentration of 1%. Virus dilutions (50 μL) are made in PBS and mixed with 50 μL of the RBC suspension. The mixture is added to individual wells in a 96-well plate and the RBC are allowed to settle for 45 minutes. The wells are judged to be HA negative (i.e. no agglutination of RBC) if a dot or pellet of RBC is present, and a well is judged to be positive if a smooth suspension of RBC is present.
In addition to MBCD, another lipid solvent, diisopropyl ether (DIPE) is used to delipidate IFV. […] After a brief centrifugation at 2,000×g for 3 minutes, visible solvent is removed, and the aqueous materials are left to dry in a fume hood for 20 minutes. The samples are then centrifuged at 200,000×g for 30 minutes to recover virus particles.

SMILES strings stand for the structures. Where two headings read alike, the source gives them in different places.

As for `CC(C)OC(C)C` [DIPE, diisopropyl ether], the “IFV infectivity reduced, compared to the mock-treatment” value in experiment [1] (12% DIPE, 37° C., 30 minutes, […]) amounted to 32 fold. For the same molecule, the PFU/mL in experiment [1] (IFV, 2% DIPE, 37° C., 30 minutes) is 1.2 × 10^8 PFU/mL; in experiment [1] (IFV, 4% DIPE, 37° C., 30 minutes) it was 1.4 × 10^8 PFU/mL; in experiment [1] (IFV, 8% DIPE, 37° C., 30 minutes), 9.0 × 10^7 PFU/mL; in experiment [1] (IFV, 10% DIPE, end-over-end rotation at 37° C. for 30 minutes) it was 1.0 × 10^5 PFU/mL; in experiment [1] (IFV, 12% DIPE, 37° C., 30 minutes), 2.8 × 10^7 PFU/mL. The “decrease in infectivity in vitro” value in experiment [1] (IFV, 10% DIPE, 30 minute treatment) is on record as around 120 fold. Moreover, the HA units in experiment [2] (2% DIPE, 37° C., 30 minutes) is on record as 32 HA units; in experiment [2] (4% DIPE, 37° C., 30 minutes) it was 32 HA units; in experiment [2] (8% DIPE, 37° C., 30 minutes), 32 HA units; in experiment [2] (10% DIPE, end-over-end rotation at 37° C. for 30 minutes), 16 HA units; in experiment [2] (12% DIPE, 37° C., 30 minutes), 16 HA units. Besides, the “effect on HA activity (in words)” value in experiment [2] (10% DIPE, 30 minutes) was “measurably reduced”.
